# According to patent publication US10017535B2, “Amphiphilic compounds with neuroprotective properties” (USTAV ORGANICKE CHEMIE A BIOCHEMIE AV CR, v.v.i., priority 2014, dated 2018):
# Where two headings read alike, the source gives them in different places.
# Legend:
# [1] = test system: NMDA lesion of the dorsal hippocampus in rats; assay: Active allothetic place avoidance (AAPA) after bilateral excitotoxic NMDA lesion of dorsal hippocampus; type: in vivo, rat Long-Evans strain; conditions: for maximum time avoiding the sector, fourth session of AAPA / number of entries into the forbidden sector, fourth session of AAPA: 1 mg/kg after surgery, vs NMDA group
# Method: In the Experimental Part 2 were used adult (3 months old, 300-400 g) male rat Long-Evans strain. The animals come from herds Institute of Physiology ASCR. The rats were housed in clear plastic boxes with the same light cycle as in mice. Animals had free access to food and water. All experiments were carried out in the light of clay. All experiments were carried out in accordance with the Law on protection of animals against cruelty.
# The anesthetized rats were used in operations isoflurane (3.5%, Baxter). To recall excitotoxic lesion of the dorsal hippocampus was applied 0.05 mol·l^−1 solution of NMDA (Sigma-Aldrich) in 0.4 mol·l^−1 phosphate buffer solution prepared by mixing 356 g Na2HPO4.12H2O (Mw358.14) in 4.2 l of distilled water and a solution of 62.4 g NaHPO4. 2H2O (Mw156.01) in 0.8 l of distilled water. The pH of the resulting solution of NMDA was adjusted to 7.4 with NaOH.
# In this experiment, the neuroprotective effects were evaluated for amphiphilic steroid compounds. The procedure was performed according to Neuropharmacology 61, 61-68 (2011)
# The rats were randomly divided into eleven groups. The control group included operated animals, which were injected by phosphate buffer […] into the hippocampus. In the second group, the animals had NMDA lesions of the hippocampus. The animals of the third group were applied clinically used NMDA antagonist memantine at a dose of 5 mg/kg after NMDA lesion. The other groups were administered the compounds at a dose of 1 mg/kg.
# The test was performed in rotating arena with prohibited sector in the form of a circular sector (60°). If the rat entered the sector, its limbs received weak electrical impulse.
# Test memory and spatial cognition in rats using AAPA was evaluated over four sessions, which are in healthy rats sufficient to achieve asymptotic level (Behay. Brain. Res. 189, 139-144 (2008)). To evaluate memory and spatial cognition was used data from the fourth session, and the number of entries into the forbidden sector and the maximum avoidance sector. […] After the experiment, the localization of the lesion was histologically verified.
# Data were analyzed using the non parametric test of Maim Whitney criteria using the GraphPad. The difference was considered significant for p<0.05, for a non-significant tendency then for 0.05<p<0.075.
# [2] = test system: laboratory mice, strain CD-1; assay: Open field test (locomotor activity, sedative effect); on Open Field Test No Evidence of Hyperlocomotion: key: −: the desired effect was not observed; −/+: the desired effect was insufficient; +: the desired effect was observed; on Sedative Effect The Rapid Onset of Sedation at a Dose of 100 mg/kg: key: −: the desired effect was not observed; −/+: the desired effect was insufficient; +: the desired effect was observed; type: in vivo; conditions: for pathway in open field: dose 10 and 100 mg/kg, vs intact mice; for locomotor activity over time: higher dose of 10 resp. 100 mg/kg; for Open Field Test No Evidence of Hyperlocomotion / Sedative Effect The Rapid Onset of Sedation at a Dose of 100 mg/kg: intraperitoneally; for Open Field Test No Evidence of Hyperlocomotion: 0.1-100 mg/kg; for hyperlocomotion in open field: lower doses (below 10 mg/kg)
# Method: (§1) In the Experimental Part 1 were used adults (30-35 g) male laboratory mice, strain CD-1 from Velaz facility, Czech Republic. Mice were housed in plastic boxes with a 12-hour light cycle (lights on at 7:00 pm). Mice had free access to food and water.
# Amphiphilic steroid compounds were dissolved in a solution of 3 g (2-hydroxypropyl)-β-cyclodextrin (CDX, Sigma-Aldrich) and 157 mg of citric acid ([…], Sigma-Aldrich) in 30 ml of distilled water, the pH was adjusted to 7.4 using sodium hydroxide (NaOH, Sigma-Aldrich). Thus there were prepared solutions of the four steroids for application rates of 0.1, 1, 10 and 100 mg/kg.
# The efficacy of the studied compounds was compared to known NMDA antagonist is memantine (Sigma-Aldrich) at a dose of 5 mg/kg in rats, ketamine (Vétoquinol) at 10 mg/kg and dizocilpine (MK-801) (Sigma-Aldrich) at a dose of 0.3 mg/kg in mice. These three compounds were dissolved in saline (B Braun).
# The substances at dose 0.1-100 mg/kg were administered before the test to mice intraperitoneally. As controls were used intact mice and mice that received CDX solution. Also, MK-801 (0.3 mg/kg) was used for comparison of effects of noncompetitive antagonist of NMDA receptors. From the experiment was evaluated overall track anywhere in the arena as an indicator of locomotor activity. In addition, it was judged a ten-minute segments track during each experiment. Based on these values, it was possible to determine the latency time of onset of action and changes in locomotor activity over time.
# In this arrangement, the sedative effect of the studied compounds at the highest dose was evaluated. […] Over time was monitored locomotor activity and possible changes characterized by tremor, ataxia, restlessness, or sedation or general anesthesia (absence of response to stimuli, decreased muscle tone).
# [3] = test system: laboratory mice, strain CD-1; assay: Passive avoidance test (aversive motivated memory); type: in vivo; on Passive Avoidance Test No Memory Violation: key: −: the desired effect was not observed; −/+: the desired effect was insufficient; +: the desired effect was observed
# Method: as §1
# Aversive motivated memory test was evaluated on the basis of latency input into the preferred, but unpleasant sensation associated with delivery device.
# [4] = test system: laboratory mice, strain CD-1; type: in vivo; conditions: intraperitoneally, 1 mg/kg; further: key: −: the desired effect was not observed; −/+: the desired effect was insufficient; +: the desired effect was observed
# Method: as §1
# Thus there were prepared solutions of the four steroids for application rates of 0.1, 1, 10 and 100 mg/kg.
# Laboratory mouse was chosen as a model organism for this experiment. The following experiments were performed as described in Front Behay. Neurosci.
# The purpose of the primary behavioral testing was quickly determined the effect of compounds on CNS dependent functions and any signs of toxicity. A simplified modification Irwin test was selected with respect to the behavioral profile of NMDA receptor antagonists. Mice were tested individually. The study drug was administered intraperitoneally (Table 3) at a dose of 1 mg/kg. The control group consisted of individuals that received the CDX solution or saline.
# [5] = target: T1, NR1-1a/NR2B NMDA receptor (Rattus norvegicus, UniProt P35439+Q00960); assay: Patch-clamp inhibition of glutamate-evoked currents at recombinant NMDA receptors in transfected HEK293 cells; type: cell-based; conditions: for IC50: calculated from relative steroid-induced inhibition, Hill's coefficient 1.2, read-out: IC50
# T1 construct: expressed in transfected cells; host or cells: HEK293 cells (ATCC CRL1573)
# Method in brief: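 HEK293 cells co-transfected with rat NR1-1a/NR2B plus GFP were whole-cell patch-clamped 16-40 h post-transfection at −60 mV. Currents were evoked by 1 mmol·l^−1 glutamate with 10 μmol·l^−1 glycine in ECS pH 7.3, and steroid was co-applied in DMSO via fast perfusion. IC50 came from relative inhibition.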
# [6] = test system: laboratory mice, strain CD-1; assay: Forced swimming test (antidepressant effect); type: in vivo
# Method: as §1
# This assay was used to monitor the antidepressant effect. Animals float 6 minutes in acrylic cylinder in water at 24° C. A period of immobility is evaluated. The reduction is a manifestation of anti-depressant properties of drugs.
# [7] = test system: NMDA receptors on hipocampal neurones; conditions: 100 μmol·l^−1 pregnanolone sulfate, responses to 100 μmol·l^−1 NMDA, n=5; cited from earlier work
# [8] = target: T1, NR1-1a/NR2B NMDA receptor; conditions: 100 μmol·l^−1 pregnanolone sulfate, recombinant NR1/NR2B receptors, n=5, cited from earlier work
# [9] = HEK293, read-out: Mean % change ± SD
# [10] = memantine 5 mg/kg after NMDA lesion
# T1 sequence (Q00960 27-1482, other chains not shown): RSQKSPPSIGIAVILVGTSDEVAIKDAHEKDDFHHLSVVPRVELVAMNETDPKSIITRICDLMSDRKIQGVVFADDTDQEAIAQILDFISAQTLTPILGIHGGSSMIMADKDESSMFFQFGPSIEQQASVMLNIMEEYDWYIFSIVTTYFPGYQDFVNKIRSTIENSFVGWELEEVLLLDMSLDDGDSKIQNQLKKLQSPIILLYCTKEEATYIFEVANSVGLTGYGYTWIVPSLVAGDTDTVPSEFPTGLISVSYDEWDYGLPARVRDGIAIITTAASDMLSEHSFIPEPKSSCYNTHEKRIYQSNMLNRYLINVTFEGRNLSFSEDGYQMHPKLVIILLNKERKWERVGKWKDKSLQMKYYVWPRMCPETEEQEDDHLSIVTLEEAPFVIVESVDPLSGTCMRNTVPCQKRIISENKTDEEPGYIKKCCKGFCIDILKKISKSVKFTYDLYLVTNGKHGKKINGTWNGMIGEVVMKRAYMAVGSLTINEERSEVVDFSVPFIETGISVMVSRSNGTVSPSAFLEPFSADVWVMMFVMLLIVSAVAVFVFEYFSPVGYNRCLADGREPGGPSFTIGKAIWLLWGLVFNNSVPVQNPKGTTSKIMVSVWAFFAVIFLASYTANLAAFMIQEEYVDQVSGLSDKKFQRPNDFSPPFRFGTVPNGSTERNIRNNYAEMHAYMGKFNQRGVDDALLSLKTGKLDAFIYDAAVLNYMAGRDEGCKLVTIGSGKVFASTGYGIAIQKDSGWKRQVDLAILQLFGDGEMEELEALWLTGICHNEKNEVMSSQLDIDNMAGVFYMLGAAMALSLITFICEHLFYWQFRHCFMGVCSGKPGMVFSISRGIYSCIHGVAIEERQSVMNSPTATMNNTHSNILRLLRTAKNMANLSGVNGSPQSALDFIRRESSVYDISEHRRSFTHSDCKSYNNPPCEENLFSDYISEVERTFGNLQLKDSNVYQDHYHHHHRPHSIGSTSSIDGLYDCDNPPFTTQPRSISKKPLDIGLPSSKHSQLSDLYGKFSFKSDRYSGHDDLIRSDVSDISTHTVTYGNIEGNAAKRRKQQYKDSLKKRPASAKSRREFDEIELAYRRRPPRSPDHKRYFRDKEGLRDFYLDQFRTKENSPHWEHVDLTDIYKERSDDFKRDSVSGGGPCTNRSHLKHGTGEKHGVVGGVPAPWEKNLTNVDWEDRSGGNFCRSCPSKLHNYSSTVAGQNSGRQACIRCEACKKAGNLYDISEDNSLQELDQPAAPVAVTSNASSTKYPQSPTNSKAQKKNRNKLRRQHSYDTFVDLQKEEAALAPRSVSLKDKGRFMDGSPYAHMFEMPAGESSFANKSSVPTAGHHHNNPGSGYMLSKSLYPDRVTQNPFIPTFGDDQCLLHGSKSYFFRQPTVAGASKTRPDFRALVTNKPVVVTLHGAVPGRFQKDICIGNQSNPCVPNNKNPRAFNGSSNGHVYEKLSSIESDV
Molecule,"maximum time avoiding the sector, fourth session of AAPA [1]","number of entries into the forbidden sector, fourth session of AAPA [1]",pathway in open field [2],locomotor activity over time [2],Open Field Test No Evidence of Hyperlocomotion [2],Sedative Effect The Rapid Onset of Sedation at a Dose of 100 mg/kg [2],hyperlocomotion in open field [2],Passive Avoidance Test No Memory Violation [3],Behavioural Test No Evidence of Toxicity [4],IC50 [5] [µM],other results
"C/C=C1/CC[C@H]2[C@@H]3CC[C@@H]4C[C@H](OC(=O)CCC(=O)O)CC[C@]4(C)[C@H]3CC[C@]12C [Compound 84, 4-(((3R,5R,8R,9S,10S,13S,14S,Z)-17-Ethylidene-10,13-dimethylhexadecahydro-1H-cyclopenta[a]phenanthren-3-yl)oxy)-4-oxobutanoic acid]",tendency to increase,reduced number of entries,significant reduction,significant decrease,+,+,not (unlike groups with dizocilpine) observed hyperlocomotion,−/+,+,,memory impairment in the passive avoidance test ([3]; 1 mg/kg): Mild memory impairment
"C=C1CC[C@H]2[C@@H]3CC[C@@H]4C[C@H](OC(=O)CC(=O)O)CC[C@]4(C)[C@H]3CC[C@]12C [Compound 67, 3-(((3R,5R,8R,9S,10S,13S,14S)-10,13-Dimethyl-17-methylenehexadecahydro-1H-cyclo-penta[a]phenanthren-3-yl)oxy)-3-oxopropanoic acid]",significantly increased,significant reduction,significant reduction,significant decrease,+,+,not (unlike groups with dizocilpine) observed hyperlocomotion,,+,18.9,"inhibition at 20 µM [5, 9]: 53 ± 10.2%"
"C=C1CC[C@H]2[C@@H]3CC[C@@H]4C[C@H](OC(=O)CCCC(=O)O)CC[C@]4(C)[C@H]3CC[C@]12C [Compound 69, 5-(((3R,5R,8R,9S,10S,13S,14S)-10,13-Dimethyl-17-methylenhexadecahydro-1H-cyclopenta[a]phenanthren-3-yl)oxy)-5-oxopentanoic acid]",,,significant reduction,significant decrease,+,+,not (unlike groups with dizocilpine) observed hyperlocomotion,,+,,"NMDA lession Improvement in Cognition in AAPA after NMDA Lession ([1]; 1 mg/kg after NMDA lesion): −/+; inhibition at 20 µM [5, 9]: 62.9 ± 5.1%"
"C[C@H]1CC[C@H]2[C@@H]3CC[C@@H]4C[C@H](OC(=O)[C@@H](N)CCC(=O)O)CC[C@]4(C)[C@H]3CC[C@]12C [Compound 81, (4S)-4-Amino-5-oxo-5-(((3R,5R,8S,9S,10S,13R,14S,17S)-10,13,17-trimethylhexadecahydro-1H-cyclopenta[a]phenanthren-3-yl)oxy)pentanoic acid]",tendency to increase,reduced number of entries,significant reduction,significant decrease,+,+,not (unlike groups with dizocilpine) observed hyperlocomotion,+,+,,Forced Swimming Test Reduced Floating [6]: −
"CC12CC3CC(C)(C1)CC(N)(C3)C2 [memantine, reference compound]",,,,,,,,,,,"maximum time avoidance, AAPA [1, 10]: tendency to increase; number of entries into the forbidden sector, AAPA [1, 10]: reduced number of entries"
"CNC1(c2ccccc2Cl)CCCCC1=O (centres unmarked) [ketamine, reference compound]",,,,,,,,,,,antidepressant effect (decrease of flotation) ([6]; reference substance ketamine (10 mg/kg)): showed antidepressant effect
"C=C1CC[C@H]2[C@@H]3CC[C@@H]4C[C@H](OC(=O)CCC(=O)O)CC[C@]4(C)[C@H]3CC[C@]12C [Compound 68, 4-(((3R,5R,8R,9S,10S,13S,14S)-10,13-Dimethyl-17-methylenhexadecahydro-1H-cyclopenta[a]phenanthren-3-yl)oxy)-4-oxobutanoic acid]",tendency to increase,reduced number of entries,significant reduction,significant decrease,+,+,not (unlike groups with dizocilpine) observed hyperlocomotion,+,+,18.8,"inhibition at 5 µM [5, 9]: 24.2 ± 14.3%"
"5beta-pregnanolon-3alpha-yl 3-sulfate [3alfa,5beta-Pregnanolone sulfate]",,,,,,,,,,55,mean inhibition effect [7]: 71.3±5.0%; mean inhibition effect (Mean % change ± SD) ([8]; listed as 5beta-pregnanolon-3alpha-yl 3-sulfate): 67%; mean inhibition effect (Mean % change ± SD) ([8]; listed as pregnanolone sulfate): 67.2±8.2%
